Source: patent US4670469A, “Hydroxamic acid and pharmaceutical preparations containing the same” (VEB Arzneimittelwerk Dresden, priority 1983, dated 1987)
“And” between values parts separate entries of the source, which are not always exact repeats. Equal values may be shown once.

Experiments:
[1] = system: carrageenin edema of rat paws; assay: Inhibition of carrageenin edema of rat paws; type: in vivo; settings: 200 mg/kg perorally, rats
Description: The inflammation-inhibiting activity of the compounds of Formula I is expressed, among others, by an inhibition of carrageenin edema in rat paws (see Example 9).
The carrageenin edema is employed in international literature as a model system for inflammation-triggering (prophlogistic) procedures, and offers the possibility of in vivo testing of compounds for inflammation-inhibiting (antiphlogistic) activity.
2(2'-naphthoxy)-acethydroxamic acid is supplied to 10 rats perorally in a dose of 200 mg/kg body weight with simultaneous delivery of 0.1 ml 1% carrageenin solution per animal. The extent of the paw edema is measured hourly after the application, and compared with the control group.

[2] = system: thrombocyte aggregation; assay: Arachidonic acid-induced thrombocyte aggregation in thrombocyte-rich plasma; type: cell-based, humans; settings: Homo sapiens; 0.8 mM arachidonic acid; concentration giving total restraint of aggregation
Source text: Since with the new medicines the restraints of lipoxygenase has been identified as a molecular type of attack, also their influence on the thrombocyte-aggregation has been tested. The essential role of the lipoxygenase pathway for irreversibility of the thrombocyte aggregation is now known. (C. E. Dutilh et al. Prostaglandins and Medicine 6, 111 (1981)). The key role is attributed to the irreversibility of the thrombocyte aggregation in the pathogenesis of thrombotic illnesses. […] In the experiments, the thrombocyte aggregation was triggered either by means of arachidonic acid or by means of platelet activation factor (PAF-Acether).
The testing of the compounds for antithrombotic and thrombolytic activity follows in authentic cell systems of humans in vitro. Thrombocyte-rich plasma from the blood of healthy donors is obtained by centrifugation at 1,000×g. The measurement of the thrombocyte aggregation follows by means of an aggregometer based upon diffuse light scattering or light absorption of the produced cell aggregate. The thrombocyte-rich plasma is pre-incubated at 37° C. for 3 minutes with the active substance or substances; thereafter the thrombocyte aggregation is triggered through the addition of either 0.8 mM arachidonic acid or 1 μM platelet activation factor (PAF-acether). The preparations are then stirred with a velocity of 800 rpm. Indeed according to the employed active substance concentration there occurs either a strong delay or a complete inhibition of the thrombocyte aggregation.

[3] = system: guinea pig lung strips; assay: Activity on the basal tones of guinea pig lung strips; settings: Cavia porcellus, basal tone, cumulative dose-activity curve
Source text: The testing of the compounds for antiasthmatic activity follows on isolated lung strips and isolated tracheal rings from guinea pigs according to measuring methods known from the literature (supra) in modified form. The measurements follow in thermostatically controlled organ bath, isotonically using a contraction measuring arrangement with lift receiver, measuring coil, measuring amplifier (inductive measurement with the aid of a high frequency resonant circuit). The gasification follows with air. The suspension solution has the following composition: 39.46 g NaCl, 2.2 g KCl, 6.07 g Tris, 1.0 g CaCl2, 9.9 g glucose, 1.0 ml saturated MgCl2 -solution, 43 ml 1N HCl; pH 7.4.
(c) Activity on the basal tones of guinea pig lung strips.
Increasing concentrations of the active substance are added to the suspension medium. There occurs a dilatation, which is cumulatively measured. From the Dose-Activity-curves are provided the following parameters: […]

[4] = target: T1, lipoxygenase from soybeans (Glycine max, UniProt P08170); assay: Inhibition of lipoxygenase from soybeans; type: biochemical; settings: pH 7.4, read-out: inhibition of soybean lipoxygenase
T1 construct: host or cells: soybeans
T1 sequence (P08170 1-839): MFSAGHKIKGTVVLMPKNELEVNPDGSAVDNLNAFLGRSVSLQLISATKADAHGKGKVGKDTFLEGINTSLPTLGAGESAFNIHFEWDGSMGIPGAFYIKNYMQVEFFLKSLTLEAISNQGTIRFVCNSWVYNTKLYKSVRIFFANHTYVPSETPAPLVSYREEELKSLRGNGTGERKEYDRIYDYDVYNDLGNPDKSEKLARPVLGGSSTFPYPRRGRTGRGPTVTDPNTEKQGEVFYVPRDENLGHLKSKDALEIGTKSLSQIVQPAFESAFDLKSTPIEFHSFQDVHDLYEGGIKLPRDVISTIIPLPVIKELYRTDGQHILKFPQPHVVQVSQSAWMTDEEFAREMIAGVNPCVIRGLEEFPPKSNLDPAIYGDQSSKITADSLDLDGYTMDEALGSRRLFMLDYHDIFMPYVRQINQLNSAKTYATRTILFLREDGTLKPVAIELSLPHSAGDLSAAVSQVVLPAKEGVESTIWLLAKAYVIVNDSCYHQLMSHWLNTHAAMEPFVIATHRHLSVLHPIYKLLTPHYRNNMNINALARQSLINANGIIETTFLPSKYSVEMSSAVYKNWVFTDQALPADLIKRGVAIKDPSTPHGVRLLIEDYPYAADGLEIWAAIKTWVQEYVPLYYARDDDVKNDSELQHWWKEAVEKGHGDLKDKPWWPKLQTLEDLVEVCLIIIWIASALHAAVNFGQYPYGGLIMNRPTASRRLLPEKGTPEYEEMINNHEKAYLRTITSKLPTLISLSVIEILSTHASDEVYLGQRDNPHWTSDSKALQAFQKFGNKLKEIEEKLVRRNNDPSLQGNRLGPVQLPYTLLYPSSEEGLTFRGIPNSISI
Description: The inhibition of thrombocyte aggregation is likewise ascribed to the inhibition of lipoxygenase in the cells. It has thus been shown that the arachidonate-lipoxygenase activity of a microsome-free lysate of human thrombocyte concentrates is inhibited to the extent of 100% by means of 0.25 mM salicylhydroxamic acid. Moreover, it has been shown that also a series of further lipoxygenases are inhibited by means of the here described hydroxamic acids. The lipoxygenase from soybeans reacts the most insensitive, i.e. it is inhibited by means of 1 mM salicylhydroxamic acid at pH 7.4 to an extent of 60% and by means of 0.4 mM 2-hydroxy-1-napthylhydroxamic acid to an extent of 54%. In contrast, for the lipoxygenase from peas which come closer in their characteristics to human lipoxygenase, the following I50 -values are provided: salicyl hydroxamic acid, 5 μM, 2-hydroxy-1-napthylhydroxamic acid, 2 μM, 2(2'-napthoxy)-acethydroxamic acid, 2 μM. Moreover it has been shown that the formation lipoxygenase products of arachidonic acid in in vitro cultivated aorta endothelial cells of calves is hindered through 0.1 mM 2-hydroxy-1-napthylhydroxamic acids.

[5] = system: histamine-induced bronchoconstriction in guinea pigs; assay: Inhibition of histamine-induced bronchoconstriction in guinea pigs in vivo; settings: individual animals; second histamine injection; listed as SHAM

SMILES	Restraint (%) of carrageenin edema ([1]; 1 h) [%]	Restraint (%) of carrageenin edema ([1]; 2 h) [%]	Restraint (%) of carrageenin edema ([1]; 3 h) [%]	Restraint (%) of carrageenin edema ([1]; 4 h) [%]	Restraint (%) of carrageenin edema ([1]; 5 h) [%]	IC100 [2] [µM]	EC50 ([3]; read-out: ED50 (dilatation)) [µM]	EC84 ([3]; read-out: ED84 (dilatation)) [µM]	inhibition at 1000 µM [4] [%]	volume change, after 5 μg/kg Histamine [5]
O=C(COc1ccc2ccccc2c1)NO [2(2'-naphthoxy)-acethydroxamic acid]	27.3	27.3	20.2	35.3	21.4	60	14	27		
O=C(NO)c1ccccc1O [salicylhydroxamic acid]									60	-49% and -95.7% and -62%
